# According to PubChem BioAssay AID1963963 (Molecular Pharmacology Branch, DTP, NCI, 2024):
# Test system: 958667-338-R-J2-PDC tumor spheroids viability
# Experiment: Anticancer human tumor 958667-338-R-J2-PDC patient-derived colon adenocarcinoma cell line growth inhibition [PI3K]
# Details: spheroids with HUVEC and MSC; for IC50: curve of first compound; for viability, T/C: stronger effect = lower value
# Excerpt: Combinatorial screen of targeted agents with the PI3K inhibitors inavolisib, alpelisib, duvelisib, and copanlisib in multi-cell type tumor spheroids
# A high-throughput screen of multi-cell type tumor spheroids was designed to identify active combinations of targeted small molecules and PI3K pathway inhibitors. Complex spheroids include a stromal component modeled by human endothelial cells (HUVEC) and fibroblasts modeled by human mesenchymal stem cells (MSCs). The concentration ranges selected for each drug and investigational agent were based upon clinically achievable concentrations if the clinical Cmax of the agent was known.
# Compounds. The drugs and investigational agents: inavolisib (NSC800729), alpelisib (NSC765974), duvelisib (NSC772469), copanlisib (NSC816437), ipatasertib (NSC767898), afuresertib (NSC778305), talazoparib (NSC767125), sapanisertib (NSC764658), selumetinib (NSC741078), tovorafenib (DAY101, NSC766906), vemurafenib (NSC761431), ravoxertinib (NSC781343), sotorasib (NSC818433), MRTX1133 (NSC 836407), abemaciclib (NSC 768073), palbociclib (NSC758247), venetoclax (NSC 766270), SY5609 (NSC837396), enzalutamide (NSC755605), and darolutamide (NSC825331), were obtained from the National Cancer Institute (NCI) Developmental Therapeutics Program Chemical Repository. The FDA-approved anticancer drug set is available from the NCI Developmental Therapeutics Program. […] The stock solutions were prepared in dimethyl sulfoxide (DMSO, Sigma-Aldrich, St. Louis, MO, cat. D2650) at 800-fold the tested concentration and stored at -70 degrees C prior to their use. All drugs and investigational agents were tested over a range starting from a high concentration at or near the clinical Cmax and decreasing in half-log increments. If the clinical Cmax for an agent had not been determined, the highest concentration tested was 10 microM.
# Cell Culture. All cells were maintained in an incubator at 37 degrees C and 5% CO2 with 95% humidity. The PDC lines were cultured according to standard operating procedures established by the NCI PDMR (https://pdmr.cancer.gov/sops/default.htm). All PDCs were thawed and cultured in Matrigel-coated flasks prepared with a working solution of 1X Ham's F-12 nutrient mix, without supplementation (Invitrogen, Waltham, MA, cat. 11765054), 100 U/mL penicillin-streptomycin (Invitrogen, cat. 15140122), and 2.5% Matrigel (Corning Inc., Corning, NY, cat. 354248) for the first three passages. The 354836-022-R-J1-PDC, 475296-252-R-J1-PDC, and 997726-040-R-J2-PDC lines were cultured in 6A media, which includes advanced DMEM/F-12 (Thermo Fisher Scientific, cat. 12634028), 10 mM HEPES (Thermo Fisher Scientific, cat. 15630080), 1X GlutaMAX supplement (Thermo Fisher Scientific, cat. 35050061), 0.1 mg/mL primocin (InvivoGen, San Diego, CA, cat. ant-pm-2), 10% defined fetal bovine serum, heat inactivated (HyClone Laboratories Inc., Logan, UT, cat. SH30070.03HI), 50% L-WRN conditioned media (ATCC, cat. CRL-3276), 1.25 mM N-Acetyl-L-cysteine (Sigma-Aldrich, cat. A9165), 10 mM nicotinamide (Sigma-Aldrich, cat. N0636), 1X B-27 supplement (Thermo Fisher Scientific, cat. 17504044), 1X N-2 supplement (Thermo Fisher Scientific, cat. 17502048), and 10 microM Y-27632 dihydrochloride (Tocris Bioscience, Bristol, United Kingdom, cat. 1254). The 624824-186-R-J2-PDC line was cultured in 6C/Colon 1B media, which includes all 6A media components plus 50 ng/mL human EGF recombinant protein (Thermo Fisher Scientific, cat. PHG0311). […]
# [1] = second compound 0.0316 µM, first compound 0.00316 µM
# [2] = second compound 0.0316 µM, first compound 0.01 µM
# [3] = second compound 0.0316 µM, first compound 0.0316 µM
# [4] = second compound 0.0316 µM, first compound 0.1 µM
# [5] = second compound 0.1 µM, first compound 0.00316 µM
# [6] = second compound 0.1 µM, first compound 0.01 µM
# [7] = second compound 0.1 µM, first compound 0.0316 µM
# [8] = second compound 0.1 µM, first compound 0.1 µM
# [9] = second compound 0.316 µM, first compound 0.00316 µM
# [10] = second compound 0.316 µM, first compound 0.01 µM
# [11] = second compound 0.316 µM, first compound 0.0316 µM
# [12] = second compound 0.316 µM, first compound 0.1 µM
# [13] = second compound 1 µM, first compound 0.00316 µM
# [14] = second compound 1 µM, first compound 0.01 µM
# [15] = second compound 1 µM, first compound 0.0316 µM
# [16] = second compound 1 µM, first compound 0.1 µM
# 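Further: spheroids exposed to compounds for seven days before readout.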
smiles,measurement,setting,value
CC(=O)c1c(C)c2cnc(Nc3ccc(N4CCNCC4)cn3)nc2n(C2CCCC2)c1=O + Cc1nc(NC(=O)N2CCCC2C(N)=O)sc1-c1ccnc(C(C)(C)C(F)(F)F)c1,IC50,second compound 0.0316 µM,> 100 nM
same,IC50,second compound 0.1 µM,> 100 nM
same,IC50,second compound 0.316 µM,> 100 nM
same,IC50,second compound 1 µM,> 100 nM
same,IC50,second compound 3.16 µM,> 100 nM
same,IC50,second compound 10 µM,> 100 nM
same,"viability, T/C","second compound 0.0316 µM, first compound 0.000316 µM",104%
same,"viability, T/C","second compound 0.0316 µM, first compound 0.001 µM",77.1%
same,"viability, T/C",[1],96%
same,"viability, T/C",[2],94.3%
same,"viability, T/C",[3],95.8%
same,"viability, T/C",[4],73.7%
same,"viability, T/C","second compound 0.1 µM, first compound 0.000316 µM",97.2%
same,"viability, T/C","second compound 0.1 µM, first compound 0.001 µM",96.8%
same,"viability, T/C",[5],106%
same,"viability, T/C",[6],88.7%
same,"viability, T/C",[7],103%
same,"viability, T/C",[8],94.7%
same,"viability, T/C","second compound 0.316 µM, first compound 0.000316 µM",104%
same,"viability, T/C","second compound 0.316 µM, first compound 0.001 µM",83.1%
same,"viability, T/C",[9],84.4%
same,"viability, T/C",[10],91.5%
same,"viability, T/C",[11],78.1%
same,"viability, T/C",[12],73.7%
same,"viability, T/C","second compound 1 µM, first compound 0.000316 µM",87.8%
same,"viability, T/C","second compound 1 µM, first compound 0.001 µM",78.5%
same,"viability, T/C",[13],73.4%
same,"viability, T/C",[14],62.2%
same,"viability, T/C",[15],74.5%
same,"viability, T/C",[16],66.2%
same,"viability, T/C","second compound 3.16 µM, first compound 0.000316 µM",72%
same,"viability, T/C","second compound 3.16 µM, first compound 0.001 µM",74%
same,"viability, T/C","second compound 3.16 µM, first compound 0.00316 µM",59.3%
same,"viability, T/C","second compound 3.16 µM, first compound 0.01 µM",67.2%
same,"viability, T/C","second compound 3.16 µM, first compound 0.0316 µM",70.3%
same,"viability, T/C","second compound 3.16 µM, first compound 0.1 µM",71.9%
same,"viability, T/C","second compound 10 µM, first compound 0.000316 µM",52.8%
same,"viability, T/C","second compound 10 µM, first compound 0.001 µM",55.5%
same,"viability, T/C","second compound 10 µM, first compound 0.00316 µM",52.2%
same,"viability, T/C","second compound 10 µM, first compound 0.01 µM",55.4%
same,"viability, T/C","second compound 10 µM, first compound 0.0316 µM",51.4%
same,"viability, T/C","second compound 10 µM, first compound 0.1 µM",58.5%
CCN1CCN(Cc2ccc(Nc3ncc(F)c(-c4cc(F)c5nc(C)n(C(C)C)c5c4)n3)nc2)CC1 + COc1c(OCCCN2CCOCC2)ccc2c3n(c(=NC(=O)c4cnc(N)nc4)nc12)CCN3,IC50,second compound 0.00316 µM,> 1000 nM
same,IC50,second compound 0.01 µM,> 1000 nM
same,IC50,second compound 0.0316 µM,344 nM
same,IC50,second compound 0.1 µM,4.7 nM
same,IC50,second compound 0.316 µM,< 3.16 nM
same,IC50,second compound 1 µM,< 3.16 nM
same,"viability, T/C","second compound 0.00316 µM, first compound 0.00316 µM",100%
same,"viability, T/C","second compound 0.00316 µM, first compound 0.01 µM",106%
same,"viability, T/C","second compound 0.00316 µM, first compound 0.0316 µM",82.9%
same,"viability, T/C","second compound 0.00316 µM, first compound 0.1 µM",67.2%
same,"viability, T/C","second compound 0.00316 µM, first compound 0.316 µM",68.3%
same,"viability, T/C","second compound 0.00316 µM, first compound 1 µM",64.3%
same,"viability, T/C","second compound 0.01 µM, first compound 0.00316 µM",69.7%
same,"viability, T/C","second compound 0.01 µM, first compound 0.01 µM",87.8%
same,"viability, T/C","second compound 0.01 µM, first compound 0.0316 µM",87.8%
same,"viability, T/C","second compound 0.01 µM, first compound 0.1 µM",65.5%
same,"viability, T/C","second compound 0.01 µM, first compound 0.316 µM",57.4%
same,"viability, T/C","second compound 0.01 µM, first compound 1 µM",51.5%
same,"viability, T/C",[1],67.5%
same,"viability, T/C",[2],61.2%
same,"viability, T/C",[3],58.6%
same,"viability, T/C",[4],57.3%
same,"viability, T/C","second compound 0.0316 µM, first compound 0.316 µM",48.4%
same,"viability, T/C","second compound 0.0316 µM, first compound 1 µM",46.1%
same,"viability, T/C",[5],53.9%
same,"viability, T/C",[6],41.4%
same,"viability, T/C",[7],40.1%
same,"viability, T/C",[8],39%
same,"viability, T/C","second compound 0.1 µM, first compound 0.316 µM",33.6%
same,"viability, T/C","second compound 0.1 µM, first compound 1 µM",32.1%
same,"viability, T/C",[9],34.4%
same,"viability, T/C",[10],33.4%
same,"viability, T/C",[11],33.8%
same,"viability, T/C",[12],22.3%
same,"viability, T/C","second compound 0.316 µM, first compound 0.316 µM",22.2%
same,"viability, T/C","second compound 0.316 µM, first compound 1 µM",25.3%
same,"viability, T/C",[13],16.9%
same,"viability, T/C",[14],14.7%
same,"viability, T/C",[15],16.5%
same,"viability, T/C",[16],14.3%
same,"viability, T/C","second compound 1 µM, first compound 0.316 µM",16.6%
same,"viability, T/C","second compound 1 µM, first compound 1 µM",18.1%
